Consider 15 compounds from patent US6420147B1, “Haloalkaliphilic microorganisms” (Genencor International, Inc., priority 1991, dated 2002).

Positions of bridges follow the written chain, without caps; N, C: chain ends. Non-standard residues stand in square brackets, D forms with d. Residues, ends and D or L forms follow the SMILES beside them. *: point of attachment. Ileψ(thiazoline)Cys = CC[C@H](C)[C@H](N)C1=N[C@H](C(=O)*)CS1; dOrn = NCCC[C@@H](N)C(=O)O

The test system of one test is Strain 103Nt.4. Nature of the test: Antibiotic sensitivity (susceptibility test disks on Medium A agar). The settings on record: antibiotic disks (contents in Appendix C), 37° C., up to 14 days. It counts as cell-based. How it is done:
(§1) A light suspension of bacteria in alkaline, saline, nutrient broth was spread on the surface of alkaline nutrient, saline agar (Medium A) and allowed to dry. Commercially available antibiotic susceptibility test disks (Oxoid or Mast Laboratories: Merseyside, U.K.) were applied to the agar surface. The bacteria were cultivated at 37° C. for up to 14 days. Clear zones around the antibiotic disks indicated sensitivity and were recorded as positive.

For the next test, the system named is Strain 31M.4. The description is as above. It counts as cell-based. The following applies: antibiotic disks (contents in Appendix C), 37° C., up to 14 days. How it is done:
as §1

For another test, the system named is Strain 86M.4. The test is described as above. The settings on record: antibiotic disks (contents in Appendix C), 37° C., up to 14 days. It counts as cell-based. How it is done:
as §1

For a further test, the system named is Strain 93dLM.4. The description is as above. It counts as cell-based. The settings on record: antibiotic disks (contents in Appendix C), 37° C., up to 14 days. How it is done:
as §1

The subject of the next test is Strain 95LM.4. The test is described as above. It counts as cell-based. The settings on record: antibiotic disks (contents in Appendix C), 37° C., up to 14 days. How it is done:
as §1

In another test the test system is Strain 98Nt.4. The test is described as above. It counts as cell-based. The settings on record: antibiotic disks (contents in Appendix C), 37° C., up to 14 days. How it is done:
as §1

Test [1] deals with Cluster 1 haloalkaliphilic bacteria. Nature of the test: Antibiotic sensitivity, distribution of positive characters. The settings on record: share of strains of cluster 1 (78.5% similarity level, SSM) scored positive = clear zone around antibiotic disk; Medium A agar, 37° C., up to 14 days. It counts as cell-based. How it is done:
as §1

Test [2] has as its system Cluster 2 haloalkaliphilic bacteria. The description is as above. It counts as cell-based. The following applies: share of strains of cluster 2 (78.5% similarity level, SSM) scored positive = clear zone around antibiotic disk; Medium A agar, 37° C., up to 14 days. How it is done:
as §1

In test [3] the test system is Cluster 3 haloalkaliphilic bacteria. The test is described as above. The settings on record: share of strains of cluster 3 (78.5% similarity level, SSM) scored positive = clear zone around antibiotic disk; Medium A agar, 37° C., up to 14 days. It counts as cell-based, haloalkaliphilic eubacteria. How it is done:
as §1

For test [4], the system named is Cluster 4 haloalkaliphilic bacteria. The description is as above. It counts as cell-based, haloalkaliphilic eubacteria. The following applies: share of strains of cluster 4 (78.5% similarity level, SSM) scored positive = clear zone around antibiotic disk; Medium A agar, 37° C., up to 14 days. How it is done:
as §1

A further test has as its system Strain 931LM.4. Put plainly: Antibiotic sensitivity (susceptibility test disks on Medium A agar). It counts as cell-based. The settings on record: antibiotic disks (contents in Appendix C), 37° C., up to 14 days. How it is done:
as §1

As for `CC[C@H](C)[C@H](N)C1=N[C@H](C(=O)N[C@@H](CC(C)C)C(=O)N[C@H](CCC(=O)O)C(=O)N[C@H](C(=O)N[C@H]2CCCCNC(=O)[C@H](CC(N)=O)NC(=O)[C@@H](CC(=O)O)NC(=O)[C@H](Cc3cnc[nH]3)NC(=O)[C@@H](Cc3ccccc3)NC(=O)[C@H]([C@@H](C)CC)NC(=O)[C@@H](CCCN)NC2=O)[C@@H](C)CC)CS1` [bacitracin] ({Ileψ(thiazoline)Cys}-L[dE]IK[dOrn]I[dF]H[dD]N; lactam 4-C), the “Inhibition of growth by antibiotic” value in the test with Strain 103Nt.4 is “not inhibited”; with Strain 31M.4 it was “not inhibited”; in the test on Strain 86M.4 it was “inhibited”; with Strain 93dLM.4 it was “inhibited”; in the test with Strain 95LM.4 it was “inhibited”; with Strain 98Nt.4, “inhibited”. Moreover, the “Distribution of positive characters: antibiotic sensitivity, Cluster 1” value (“Distribution of positive characters … Cluster 1” for short) in [1] came to 100. In test [2], the “Distribution of positive characters: antibiotic sensitivity, Cluster 2” value (from here on “Distribution of positive characters … Cluster 2”) stood at 82. Also, in test [3], the “Distribution of positive characters: antibiotic sensitivity, Cluster 3” value (from here on “Distribution of positive characters … Cluster 3”) was 100. Besides, the “Distribution of positive characters: antibiotic sensitivity, Cluster 4” value (from here on “Distribution of positive characters … Cluster 4”) in test [4] is reported as 100.
`CC(=O)O[C@H]1C[C@@]2(C)[C@@H](C[C@@H](O)[C@H]3[C@@]4(C)CC[C@@H](O)[C@@H](C)[C@@H]4CC[C@@]32C)/C1=C(\CCC=C(C)C)C(=O)O` [fusidic acid]: the “Inhibition of growth by antibiotic” value is recorded as “not inhibited” with Strain 103Nt.4, “inhibited” with Strain 31M.4 and “inhibited” in the test on Strain 931LM.4. Moreover, the “Distribution of positive characters … Cluster 1” value in test [1] is given as 14. Moreover, the “Distribution of positive characters … Cluster 2” value in [2] is listed as 9. Further, the “Distribution of positive characters … Cluster 3” value in test [3] came to 0. In test [4], the “Distribution of positive characters … Cluster 4” value was 17.
On to `NC[C@H]1O[C@H](O[C@H]2[C@H](O)[C@@H](O[C@H]3O[C@H](CO)[C@@H](O)[C@H](N)[C@H]3O)[C@H](N)C[C@@H]2N)[C@H](O)[C@@H](O)[C@@H]1O` [kanamycin], for which the “Inhibition of growth by antibiotic” value in the test with Strain 86M.4, with Strain 93dLM.4, in the test on Strain 95LM.4 and with Strain 98Nt.4 was “not inhibited” throughout. In test [1], the “Distribution of positive characters … Cluster 1” value is listed as 0. The “Distribution of positive characters … Cluster 2” value in [2] is reported as 0. Besides, the “Distribution of positive characters … Cluster 3” value in test [3] amounted to 0. Moreover, the “Distribution of positive characters … Cluster 4” value in test [4] amounted to 17.
As to `COc1cccc(OC)c1C(=O)N[C@@H]1C(=O)N2[C@@H]1SC(C)(C)[C@@H]2C(=O)O` [methicillin], the “Inhibition of growth by antibiotic” value in the test on Strain 103Nt.4 was “not inhibited”; in the test with Strain 31M.4 it was “inhibited”; in the test with Strain 931LM.4 it was “inhibited”. Also, the “Distribution of positive characters … Cluster 1” value in [1] is reported as 0. For the same compound, in test [2], the “Distribution of positive characters … Cluster 2” value was 0. The “Distribution of positive characters … Cluster 3” value in test [3] is recorded as 0. The “Distribution of positive characters … Cluster 4” value in [4] worked out at 0.
In the case of `CCn1cc(C(=O)O)c(=O)c2ccc(C)nc21` [nalidixic acid], the “Inhibition of growth by antibiotic” value with Strain 103Nt.4, in the test with Strain 31M.4 and in the test with Strain 931LM.4 was “inhibited” each time. Also, the “Distribution of positive characters … Cluster 1” value in [1] is recorded as 0. Besides, in [2], the “Distribution of positive characters … Cluster 2” value is listed as 18. Further, the “Distribution of positive characters … Cluster 3” value in [3] was 0. The “Distribution of positive characters … Cluster 4” value in test [4] amounted to 0.
With `O=C1CN(/N=C/c2ccc([N+](=O)[O-])o2)C(=O)N1` [nitrofurantoin], the “Inhibition of growth by antibiotic” value with Strain 931LM.4 is given as “not inhibited”.
As for `CO[C@H]1C[C@H](O[C@H]2[C@H](C)[C@@H](O[C@@H]3O[C@H](C)C[C@H](N(C)C)[C@H]3O)[C@@H](C)C[C@@]3(CO3)C(=O)[C@H](C)[C@@H](O)[C@@H](C)[C@@H](C)OC(=O)[C@@H]2C)O[C@@H](C)[C@@H]1O` [oleandomycin], the “Inhibition of growth by antibiotic” value is recorded as “not inhibited” in the test with Strain 103Nt.4; “inhibited” with Strain 31M.4; “not inhibited” in the test on Strain 86M.4; “inhibited” in the test on Strain 93dLM.4; “inhibited” in the test on Strain 95LM.4; “not inhibited” in the test with Strain 98Nt.4. Also, the “Distribution of positive characters … Cluster 1” value in test [1] was 0. For the same compound, in [2], the “Distribution of positive characters … Cluster 2” value turned out to be 0. Moreover, the “Distribution of positive characters … Cluster 3” value in [3] is listed as 100. The “Distribution of positive characters … Cluster 4” value in [4] amounted to 100.
Consider `CO[C@H]1/C=C/O[C@@]2(C)Oc3c(C)c(O)c4c(O)c(c(/C=N/N5CCN(C)CC5)c(O)c4c3C2=O)NC(=O)/C(C)=C\C=C\[C@H](C)[C@H](O)[C@@H](C)[C@@H](O)[C@@H](C)[C@H](OC(C)=O)[C@@H]1C` [rifampicin], for which the “Inhibition of growth by antibiotic” value with Strain 103Nt.4, with Strain 31M.4 and with Strain 86M.4 was “not inhibited” in each case. In [1], the “Distribution of positive characters … Cluster 1” value is reported as 14. The “Distribution of positive characters … Cluster 2” value in [2] is listed as 64. Also, the “Distribution of positive characters … Cluster 3” value in [3] worked out at 67. Moreover, in [4], the “Distribution of positive characters … Cluster 4” value is listed as 83.
As to `Cc1cc(NS(=O)(=O)c2ccc(N)cc2)no1` [sulphamethoxazole], the “Inhibition of growth by antibiotic” value in the test on Strain 103Nt.4 was “inhibited”; in the test on Strain 31M.4 it was “not inhibited”.
Take `CN(C)[C@@H]1C(O)=C(C(N)=O)C(=O)[C@@]2(O)C(O)=C3C(=O)c4c(O)cccc4[C@@](C)(O)[C@H]3C[C@@H]12` [tetracycline]: the “Inhibition of growth by antibiotic” value with Strain 86M.4, with Strain 93dLM.4, with Strain 95LM.4 and with Strain 98Nt.4 was “not inhibited” throughout. Moreover, the “Distribution of positive characters … Cluster 1” value in test [1] came out at 14. Also, the “Distribution of positive characters … Cluster 2” value in test [2] came to 9. For the same compound, the “Distribution of positive characters … Cluster 3” value in test [3] is recorded as 33. The “Distribution of positive characters … Cluster 4” value in test [4] is 17.
In the case of `COc1cc(Cc2cnc(N)nc2N)cc(OC)c1OC` [trimethoprim], the “Inhibition of growth by antibiotic” value with Strain 103Nt.4 is reported as “inhibited”; with Strain 31M.4, “not inhibited”; in the test on Strain 931LM.4 it was “not inhibited”.
For the compound `CN[C@H](CC(C)C)C(=O)N[C@H]1C(=O)N[C@@H](CC(N)=O)C(=O)N[C@H]2C(=O)N[C@H]3C(=O)N[C@H](C(=O)N[C@H](C(=O)O)c4cc(O)cc(O)c4-c4cc3ccc4O)[C@H](O)c3ccc(c(Cl)c3)Oc3cc2cc(c3O[C@@H]2O[C@H](CO)[C@@H](O)[C@H](O)[C@H]2O[C@H]2C[C@](C)(N)[C@H](O)[C@H](C)O2)Oc2ccc(cc2Cl)[C@H]1O` [vancomycin], the “Inhibition of growth by antibiotic” value is “not inhibited” with Strain 103Nt.4; “not inhibited” with Strain 86M.4; “inhibited” with Strain 93dLM.4; “inhibited” in the test with Strain 95LM.4; “not inhibited” in the test on Strain 98Nt.4. In addition, the “Distribution of positive characters … Cluster 1” value in test [1] amounted to 0. Besides, the “Distribution of positive characters … Cluster 2” value in [2] was determined as 0. In addition, the “Distribution of positive characters … Cluster 3” value in [3] was 100. In addition, the “Distribution of positive characters … Cluster 4” value in test [4] was found to be 83.
Turning to Gentamycin, the “Distribution of positive characters … Cluster 1” value in test [1] came out at 0. In test [2], the “Distribution of positive characters … Cluster 2” value is 0. The “Distribution of positive characters … Cluster 3” value in test [3] turned out to be 67. Further, in test [4], the “Distribution of positive characters … Cluster 4” value is given as 50.
Take neomycin: the “Inhibition of growth by antibiotic” value in the test with Strain 103Nt.4 is given as “inhibited”; in the test with Strain 86M.4, “not inhibited”; in the test with Strain 93dLM.4 it was “not inhibited”; in the test on Strain 95LM.4 it was “not inhibited”; with Strain 98Nt.4, “not inhibited”. Further, in test [1], the “Distribution of positive characters … Cluster 1” value stood at 0. The “Distribution of positive characters … Cluster 2” value in [2] was found to be 0. In addition, in test [3], the “Distribution of positive characters … Cluster 3” value stood at 0. Further, the “Distribution of positive characters … Cluster 4” value in test [4] was found to be 0.
Regarding polymixin, the “Inhibition of growth by antibiotic” value with Strain 103Nt.4 was “inhibited”; with Strain 31M.4 it was “not inhibited”; in the test on Strain 86M.4, “not inhibited”; in the test with Strain 93dLM.4, “not inhibited”; in the test with Strain 95LM.4, “not inhibited”; in the test with Strain 98Nt.4, “not inhibited”. In test [1], the “Distribution of positive characters … Cluster 1” value amounted to 0. Further, the “Distribution of positive characters … Cluster 2” value in test [2] is given as 0. In addition, the “Distribution of positive characters … Cluster 3” value in test [3] came to 0. In test [4], the “Distribution of positive characters … Cluster 4” value was found to be 0.
